Our source for the IC50 values is ChEMBL document CHEMBL1132909 (Bioorg Med Chem Lett, 2000).

Broadly, the IC50 is the point on the concentration scale where inhibition reaches its midpoint. A higher IC50 goes with lower potency.

Neuraminidase (Influenza A virus (A/Puerto Rico/8/1934(H1N1)), UniProt P03468), sequence (P03468 whole entry): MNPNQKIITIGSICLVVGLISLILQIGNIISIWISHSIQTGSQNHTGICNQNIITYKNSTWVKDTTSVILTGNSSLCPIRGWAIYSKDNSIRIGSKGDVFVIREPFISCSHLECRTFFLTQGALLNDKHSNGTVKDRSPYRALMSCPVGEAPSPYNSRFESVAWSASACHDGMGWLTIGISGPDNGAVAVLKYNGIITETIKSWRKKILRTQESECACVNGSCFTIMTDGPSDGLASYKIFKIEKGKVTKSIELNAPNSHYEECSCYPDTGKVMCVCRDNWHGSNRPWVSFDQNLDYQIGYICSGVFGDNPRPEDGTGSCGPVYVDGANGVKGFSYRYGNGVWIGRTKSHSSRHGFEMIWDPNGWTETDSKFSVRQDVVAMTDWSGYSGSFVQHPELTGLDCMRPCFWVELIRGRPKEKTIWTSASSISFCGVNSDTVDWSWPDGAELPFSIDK

The assay concerns the target Neuraminidase (Influenza A virus (A/Puerto Rico/8/1934(H1N1)), UniProt P03468). Kind of assay: Inhibition of neuraminidase in Influenza A. The assay is classed as functional.
In the case of `CC(=O)N[C@H]1[C@H](N2CCCCC2)C=C(C(=O)O)C[C@@H]1N`, half-maximal inhibition (IC50) was put at 0.025 µM.

Regarding `CCC1CCN([C@@H]2C=C(C(=O)O)C[C@H](N)[C@H]2NC(C)=O)CC1`, the midpoint of inhibition, the IC50, lay at 0.052 µM.

In turn, `CC(=O)N[C@H]1[C@H](N2CCN(C)CC2)C=C(C(=O)O)C[C@@H]1N` returned an IC50 of 1.9 µM.

`CC(=O)N[C@H]1[C@H](N2CCCC2)C=C(C(=O)O)C[C@@H]1N`: half-maximal inhibition (IC50) was put at 0.31 µM.

Take `CC(=O)N[C@H]1[C@H](N2C3CCCC2CC3)C=C(C(=O)O)C[C@@H]1N`: inhibition was half-maximal at 0.032 µM (IC50).

`CC(=O)N[C@H]1[C@H](N2CCCCCC2)C=C(C(=O)O)C[C@@H]1N` had an IC50 of 0.035 µM.

`CC(=O)N[C@H]1[C@H](N2CCC(C)CC2)C=C(C(=O)O)C[C@@H]1N` yielded a 50% inhibitory concentration (IC50) of 0.051 µM.

In the case of `CC(=O)N[C@H]1[C@H](N2CCC2)C=C(C(=O)O)C[C@@H]1N`, inhibition was half-maximal at 1 µM (IC50).

`CCC1(CC)CN([C@@H]2C=C(C(=O)O)C[C@H](N)[C@H]2NC(C)=O)C1` displayed an IC50 of 0.265 µM.

`CCCC1CCN([C@@H]2C=C(C(=O)O)C[C@H](N)[C@H]2NC(C)=O)CC1`: the concentration for half-maximal inhibition (IC50) worked out at 0.04 µM.

Consider `CC(=O)N[C@H]1[C@H](N2CCCCCCCC2)C=C(C(=O)O)C[C@@H]1N`, for which the IC50 came to 0.075 µM.

The molecule `CC(=O)N[C@H]1[C@H](N2CCOCC2)C=C(C(=O)O)C[C@@H]1N` displayed an IC50 of 0.26 µM.

The molecule `CC(=O)N[C@H]1[C@H](N2CCCCCCC2)C=C(C(=O)O)C[C@@H]1N` showed an IC50 of 0.026 µM.

The molecule `CC(=O)N[C@H]1[C@H](N2CCCCC[C@@H]2CO)C=C(C(=O)O)C[C@@H]1N` registered an IC50 of 0.008 µM.
